Assays:
Assay type in all cases: cell-based, human
BT-474 and SKBR-3 cells = test: BT-474 and SKBR-3 growth in […] with HRG (morphology, PCA)
Procedure: The cells were tested at the company Ocello based in Leiden, the Netherlands that grows cells in three dimensional […]® and uses principle component analysis to distinguish non-treated cells from treated cells. 2000 SK-BR-3 or 2250 BT474 cells were seeded in 15µl […]® per well of a 384 well plate (Greiner 781091 ). […] In addition a dose-dependent titration of HRG was included as a positive control. Each dose was tested in quadruplicate. Cells were incubated for 7 days in a cell culture incubator at 37° C., 5% CO2. Next, the cells were fixed and actin cytoskeleton of the cells was stained with phalloidin and the nuclei are stained with Hoechst. Next, fluorescent images were taken at different levels through the gel (Z-stack) and the images were superimposed. A broad range of morphological features were measured (800 in total). Only features that differed between medium and HRG treatments were selected for analysis. […] Both multiparameter and single parameter analyses were made. For single parameter measurements, t-tests were performed to compare treatments (HRG or antibody) to medium. P-values for each point were determined. […]
The assay was performed in […]®, as described above, and morphological features were analyzed. […]

N87 cells = test: HRG driven N87 proliferation assay
Procedure: Upregulation of NRG1-β1 is a key resistance mechanism against HER2 targeted therapies (Wilson, 2012). […] N87 cells were cultured in RPMI 1640 supplemented with 10% heat inactivated FBS. For the proliferation assay subconfluent cell cultures of N87 cells were washed with PBS trypsinized and trypsin was inactivated by adding culture medium. Cells were washed twice in large volumes of assay medium (RPMI 1640 medium containing 0.05% BSA and 10 µg/ml Holo Transferrin). Antibodies were diluted in a semi-log titration that varied from 1-0.0001 µg/ml. Cells were added at a density of 10000 cells/well in the presence of 100 ng/ml final concentration of HRG. The cells were cultivated for 3 days at 37° C., 5% CO2, in 95% relative humidity. ALAMAR BLUE™ (INVITROGEN®) was added according to the manufacturer’s instructions and incubated for 6 hours at 37° C., 5% CO2, in 95% relative humidity in the dark. Fluorescence was measured at 550 nm excitation with 590 nm emission wavelength.
Upregulation of NRG 1-β1 is a key resistance mechanism against HER2 targeted therapies (Wilson, 2012). […] To this aim N87 cells were cultured in RPMI 1640 supplemented with 10% heat inactivated FBS. […] Fluorescence was measured at 550 nm excitation with 590 nm emission wavelength.

[1] = system: SK-BR-3 and MCF-7 target cells; test: ADCC 51Cr release assay; details: whole blood or PBMC effector cells
Procedure: ADCC activity is an important anti-tumour mechanism of action for therapeutic antibodies in cancer. […] Trastuzumab and a negative control antibody were included as control antibodies in the experiment. Whole blood and PBMC fractions were obtained from healthy donors. Each antibody was tested against the HER2 high (SK-BR-3) and HER2 low (MCF-7) expressing target cells. Target cells were loaded with ^51Cr (Amersham) and opsonized with the indicated concentrations of antibody. Whole-blood or PBMC fraction were used as effector cells in a 200 µL reaction in RPMI 1640 + 10% heat inactivated FCS. Cells were incubated together for 4 h, and lysis was estimated by measuring radioactivity in the supernatant using a Y^- scintillator. Percentage of specific lysis was calculated as follows: (experimental cpm – basal cpm) / (maximal cpm – basal cpm) × 100, with maximal lysis determined in the presence of 5% Triton X-100 and basal lysis in the absence of antibody and effectors.
ADCC activity can be enhanced by different techniques, one of them being the removal of fucose. […] Both antibodies were applied in a serial dilution and a negative control antibody and trastuzumab were included in the assay.

[2] = system: SKBR-3 cells with FcγRIIIa reporter cells; test: ADCC Reporter Bioassay (Promega); details: SKBR-3, V158 effector cells
Procedure: In a different ADCC setup, the ADCC Reporter Bioassay (Promega) was used. The bioassay uses engineered Jurkat cells stably expressing the FcYRIIIa receptor, V158 (high affinity) or F158 (low affinity) variant, and an NFAT response element driving expression of firefly luciferase. The assay was validated by comparing data obtained with the ADCC Reporter Bioassay to the classical ^51Cr release assay. The ADCC assays were performed using the Promega ADCC Bioassay kit using 384 white well plates. In this experimental setup SKBR-3 cells were plated at a density of 1000 cells/well in 30 µl assay medium (RPMI with 4% low IgG serum) 20-24 H before the bioassay. The next day, the culture medium was removed. […] 10 µl antibody dilutions were added to the wells. The starting concentration of the antibody was 10 µg/ml and a 10 points semi-log fold serial dilution was generated to provide a full dose-response curve. Finally, 5 µl of ADCC Bioassay effector cells (15000 cells/well, V158) were added. The cells were incubated for 6 H at 37° C. Next, 15 µl BIO-Glo luciferase substrate was added and 5 minutes later luminescence was detected in a plate reader.
ADCC activity was measured by measuring luciferase activity. […] (FIG. 15)

SKBR-3 and N87 cells = test: Internalization of pH-sensitive dye labelled antibodies; details: 100 nM labelled antibody, 1 ng/ml HRG

Question: What does the source list for “PB4188: bispecific HER2xHER3 IgG: HER2 arm MF3958, HER3 arm MF3178”?
Answer: Activity compared to pertuzumab + trastuzumab, PB3448 and MEHD7945A (BT-474 and SKBR-3 cells; BT-474 and SKBR-3, in the presence of HRG): superior activity; Effect on HRG induced proliferation and branching/invasion phenotype (BT-474 and SKBR-3 cells; SKBR-3, 10 ng/ml HRG): completely revert the HRG induced phenotype; Anti-proliferative activity on N87 (N87 cells; 100 ng/ml HRG): superior activity over anti-HER2 or anti-HER3 monoclonal antibodies; Anti-proliferative activity on N87 versus PG3178 (N87 cells; increasing HRG 0.04-39.5 nM): superior activity compared to the parental anti-HER3 monoclonal antibody; ADCC activity [1]: effective at high antibody concentrations; ADCC potency compared to parental monoclonals or their combination [2]: higher ADCC potentency; Internalization (SKBR-3 and N87 cells): internalizes to the same extend as trastuzumab
